Tests used:
AI12.B1.3 TCR = assay: TCR transfectant peptide recognition, IL-2 release (58 α−β− cells, RMA-S/K^d presenters); type: cell-based, mouse; conditions: FIG. 2
Excerpt: (§1) T cell receptors from the previously isolated NOD-derived β cell-autoreactive class I MHC-restricted T cell clones AI4, AI12.B1.1, AI12.B1.2, AI12.B1.3, AI15.A10, AI15.F5 (DiLorenzo et al., 1998), and 8.3 (Verdaguer et al., 1997) were expressed in the TCR^− T cell hybridoma 58α^−β^− (engineered to express the TCR ζ chain and CD8αβ and provided by H.-C. Chang, Dana Farber, Boston, Mass., USA) as described (Serreze et al., 2001). TCR expression was verified by flow cytometric analysis of growing clones using an antibody to CD3ε (145-2C11). RMA-S/K^d cells incubated overnight at 28° C. were used to present exogenously added synthetic peptides at concentrations as indicated in the figures. Peptide recognition by the TCR transfectants was measured by IL-2 production as previously described (Serreze et al., 2001).

AI15.F5 TCR = assay: as above; type: cell-based, mouse; conditions: FIG. 2
Excerpt: as §1

8.3-CD8+ T-cells = assay: Proliferation and cytokine secretion of naive splenic 8.3-CD8+ T-cells with peptide-pulsed NOD splenocytes; type: cell-based, mouse; conditions: FIG. 5, peptide 0.01-1 μM
Procedure: Naïve or NRP-A7-differentiated (see below) splenic CD8+ T-cells from 8.3-NOD mice (2×10^4/well) were incubated, in duplicate, with peptide-pulsed (0.01, 0.1 and 1 μM), γ-irradiated (3,000 rad) NOD splenocytes (10^5/well) for 3 days at 37° C. in 5% CO2. Cultures were pulsed with 1 μCi of (^3H)-thymidine during the last 18 hours of culture and harvested.
Naïve splenic CD8+ T-cells from 8.3-NOD mice (2×10^4/well) were incubated with peptide-pulsed (0.001, 0.01, 0.1, 1 and/or 10 μM) γ-irradiated NOD splenocytes (10^5/well) in 96-well plates for 48 hours at 37° C. Short-term islet-derived T-cell lines from peptide-treated or unmanipulated NOD mice (adjusted at 2×10^4 CD8+ T-cells/well) were tested the same way, but using 10 μM of peptide. The supernatants (100 μl/well) were assayed in duplicate for IL-2, IL-4, and/or IFN-γ content by ELISA using commercially available kits (Genzyme Diagnostics, Cambridge, Mass.).

[1] = tested on: 8.3-CD8+ splenocytes of 8.3-NOD mice; assay: Tolerogenic activity of APLs in 8.3-NOD mice; type: in vivo, mouse; conditions: single injection 100 μg in PBS, analysis 7 days later
Procedure: (§2) Cohorts of 3-to-4 week-old female NOD mice were injected with 1-100 μg of peptide in PBS intraperitoneally. This was repeated every 2 weeks until the 7-8th week, and every 3 weeks thereafter. Mice were monitored for development of hyperglycemia until at least the 28th week of age. The 8.3-CD8+ T-cell tolerogenic activity of APLs was determined by treating 8-15 wk-old 8.3-NOD mice with one i.p. injection of 100 μg of peptide. […] Mice were sacrificed a week after treatment, and their spleens analyzed for presence of 8.3-CD8+ T-cells by flow cytometry.

female NOD mice = assay: Repeated peptide treatment of female NOD mice, diabetes development and islet-associated CD8+ T-cells; type: in vivo, mouse
Procedure: as §2
We next investigated whether the anti-diabetogenic activity of the above APLs was a function of “avidity”, as defined not only by the affinity of individual peptide/MHC complexes for specific TCRs, but also by the absolute number of peptide/MHC complexes that are available for recognition (i.e. dose of peptide). This was done by treating cohorts of female NOD mice with repeated injections of TUM (negative control), NRP-I4, NRP-A7 and NRP-V7 (in PBS) over a wide dose range, and by following the mice for development of diabetes (FIG. 7A, top). Starting at 3-4 weeks of age, mice received one injection of peptide i.p. every 2 (first three doses) or 3 weeks after initiation of treatment. Mice were sacrificed at diabetes onset or at the end of the follow-up period (28-32 weeks), to investigate the effects of treatment on the size and tetramer-binding avidity of the islet-associated IGRP206-214-reactive CD8+ T-cell subpopulation (FIG. 7A, bottom).

[2] = tested on: T-cells from the islets of 12-week-old female NOD mice; assay: Interferon-γ ELISpot of T-cells cultured from NOD islets (Example 4); type: cell-based, mouse
Procedure: Using procedures described in Example 1, we have cultured T-cells from the islets of 12-week-old female NOD mice. T-cells were assayed for recognition of several different IGRP peptides by interferon-γ ELISpot.

H-2Db = biological target: T1, H-2Db (Mus musculus, UniProt P01899); assay: Presentation of IGRP peptide by MHC class I molecule
T1 sequence (P01899 25-362): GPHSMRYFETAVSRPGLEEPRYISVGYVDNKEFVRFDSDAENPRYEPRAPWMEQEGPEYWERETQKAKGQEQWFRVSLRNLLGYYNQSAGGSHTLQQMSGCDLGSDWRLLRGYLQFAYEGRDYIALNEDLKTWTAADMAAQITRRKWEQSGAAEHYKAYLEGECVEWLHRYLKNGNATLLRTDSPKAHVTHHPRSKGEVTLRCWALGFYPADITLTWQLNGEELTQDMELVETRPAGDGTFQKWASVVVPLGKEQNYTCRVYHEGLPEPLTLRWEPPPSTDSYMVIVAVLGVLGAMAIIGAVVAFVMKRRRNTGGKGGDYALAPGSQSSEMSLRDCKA
T1 sequence (P01887 21-119 partner): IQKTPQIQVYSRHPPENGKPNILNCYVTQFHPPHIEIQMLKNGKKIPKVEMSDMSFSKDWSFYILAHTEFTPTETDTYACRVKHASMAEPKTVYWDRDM

With KYNKANVFL [NRP-V7, reference compound] the “recognition by AI12.B1.3 (IL-2 release)” value (AI12.B1.3 TCR) was “recognized”, the “recognition by AI15.F5 (IL-2 release)” value (AI15.F5 TCR) was “responded” and the “agonistic activity on 8.3-CD8+ T-cells” value (8.3-CD8+ T-cells) was “superior agonistic activity”. For the same sequence, the “8.3-CD8+ splenocytes after treatment” value [1] was “fewer 8.3-CD8+ splenocytes”, the anti-diabetogenic activity (female NOD mice; any dose) was “not significantly protective” and the “protection from diabetes by chronic treatment (discussion summary)” value (female NOD mice; intermediate doses NRP-A7, high doses NRP-I4, low or high doses NRP-V7, high doses IGRP206-214) was “only afforded marginal protection from disease”. For the same sequence, the “NRP-V7-reactive CD8+ cells in the islets” value (female NOD mice; over a range of doses) was “almost completely devoid”.

FLWSVFWLI [IGRP152-160] was tested, and the “T-cell reactivity by interferon-γ ELISpot” value [2] was “Reactivity was found”.

In the case of CALTSLTTM [IGRP296-304], the “presentation by MHC class I molecule” value (H-2Db) is reported as “is presented by the MHC class I molecule H-2Db”.
